Among the data in PubChem BioAssay (NCI) are GI50 and TGI values, retold here.

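Results reflect a 48-hour exposure of cells in 96-well plates to compound at five concentrations. GI50 marks 50% less growth. The concentration for full growth arrest is given as TGI.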

Among the test systems are MOLT-4 leukemia; HS 578T breast; LOX IMVI melanoma; EKVX NSCLC; UACC-62 melanoma; ACHN renal; KM12 colon; OVCAR-4 ovarian; U251 CNS; SNB-75 CNS.
Common to all, as to experiment: inhibition of tumour cell growth, NCI panel, 48 h

Regarding `COc1ccc(/C=C(/C(=O)N2CCNCC2)c2cc(OC)c(OC)c(OC)c2)cc1O`, the GI50 in the experiment on MOLT-4 leukemia is 3.94 µM; with HS 578T breast, 2.42 µM; with LOX IMVI melanoma, 5.21 µM; in the experiment on EKVX NSCLC it was 6.43 µM; in the experiment on UACC-62 melanoma it was 3.15 µM; in the experiment on ACHN renal, 49.5 µM. Also, the GI50 with KM12 colon is 3.18 µM; in the experiment on OVCAR-4 ovarian, 8.15 µM; in the experiment on U251 CNS, 3.29 µM. In addition, the TGI is greater than 100 µM in the experiment with MOLT-4 leukemia; 30 µM in the experiment with HS 578T breast; greater than 100 µM with LOX IMVI melanoma; greater than 100 µM in the experiment on EKVX NSCLC; greater than 100 µM with UACC-62 melanoma; greater than 100 µM in the experiment with ACHN renal. Moreover, the TGI in the experiment on KM12 colon, in the experiment with OVCAR-4 ovarian and in the experiment on U251 CNS was greater than 100 µM in each case.

As to `Cc1nc2cc(O)c(O)cc2cc1Oc1ccc(NC(=O)Nc2ccc(Cl)c(Cl)c2)cc1`, the GI50 with MOLT-4 leukemia is 8.87 µM; with HS 578T breast, 12.8 µM; with SNB-75 CNS, 7.73 µM; with UACC-62 melanoma, 5.67 µM; with ACHN renal, 3.37 µM; in the experiment with KM12 colon it was 9.64 µM. Besides, the results for the GI50 in the experiment on OVCAR-4 ovarian and with U251 CNS were 9.73 µM and 6.58 µM, respectively. Besides, the TGI in the experiment with MOLT-4 leukemia was greater than 32.5 µM; in the experiment with HS 578T breast, greater than 32.5 µM; with SNB-75 CNS, 28.9 µM; with UACC-62 melanoma, 11.2 µM; with ACHN renal, 17.9 µM; in the experiment with KM12 colon, 32 µM. For the same compound, the TGI in the experiment with OVCAR-4 ovarian and with U251 CNS was greater than 32.5 µM in each case.

Regarding `O=C1NC(=NCc2ccccn2)S/C1=C\c1ccc2ncccc2c1`, the GI50 with MOLT-4 leukemia was 11.3 µM; in the experiment on HS 578T breast, 6.12 µM; in the experiment on LOX IMVI melanoma it was 13.1 µM; with SNB-75 CNS, 4.21 µM; with UACC-62 melanoma, greater than 17.5 µM; in the experiment on ACHN renal, 10.2 µM. Moreover, the values for the GI50 in the experiment on KM12 colon, in the experiment with OVCAR-4 ovarian and in the experiment with U251 CNS were 13.2 µM, 9.74 µM and 7.87 µM, respectively. Besides, the TGI was greater than 25 µM with MOLT-4 leukemia; 21.4 µM in the experiment with HS 578T breast; greater than 25 µM in the experiment with LOX IMVI melanoma; 22.4 µM in the experiment on SNB-75 CNS; greater than 25 µM with UACC-62 melanoma; greater than 25 µM in the experiment with ACHN renal. Further, the TGI with KM12 colon was greater than 25 µM; in the experiment on OVCAR-4 ovarian it was 24.7 µM; in the experiment with U251 CNS, greater than 25 µM.

As for `O=C(Nc1ccccc1Cl)c1ccc(NC2=C(Cl)C(=O)N(Cc3ccccc3)C2=O)cc1`, the GI50 in the experiment on MOLT-4 leukemia is 19.1 µM; in the experiment with HS 578T breast it was 32.7 µM; in the experiment with LOX IMVI melanoma it was 17.9 µM; in the experiment on EKVX NSCLC, greater than 100 µM; in the experiment with UACC-62 melanoma, 19.5 µM; with ACHN renal, 37.6 µM. The values for the GI50 in the experiment on KM12 colon, with OVCAR-4 ovarian and in the experiment on U251 CNS were 32.7 µM, 78.9 µM and 38.4 µM, respectively. The TGI was 50.8 µM with MOLT-4 leukemia; 69.3 µM in the experiment with HS 578T breast; 32.6 µM in the experiment on LOX IMVI melanoma; greater than 100 µM in the experiment on EKVX NSCLC; 41.1 µM in the experiment on UACC-62 melanoma; greater than 100 µM in the experiment on ACHN renal. For the same compound, the TGI in the experiment with KM12 colon, with OVCAR-4 ovarian and in the experiment with U251 CNS was greater than 100 µM throughout.

`O=C1c2cccc3cccc(c23)C(=O)N1CCCCOc1ccc(-c2nc3ccc(N4CCOCC4)cc3[nH]2)cc1`: the GI50 in the experiment with MOLT-4 leukemia was 2.95 µM; with HS 578T breast, 2.16 µM; in the experiment with LOX IMVI melanoma, 2.11 µM; with EKVX NSCLC, 17.6 µM; in the experiment on UACC-62 melanoma it was 1.72 µM; in the experiment with ACHN renal, 15.2 µM. The GI50 with KM12 colon is 2.88 µM; in the experiment on OVCAR-4 ovarian, 1.8 µM; in the experiment with U251 CNS, 1.53 µM. The TGI in the experiment on MOLT-4 leukemia was greater than 100 µM; in the experiment with HS 578T breast it was 14.7 µM; with LOX IMVI melanoma, 4.53 µM; in the experiment on EKVX NSCLC, greater than 57.9 µM; in the experiment on UACC-62 melanoma, 3.2 µM; with ACHN renal, 29.2 µM. Besides, the TGI in the experiment on OVCAR-4 ovarian was determined as 4.08 µM; in the experiment with U251 CNS, 4.56 µM.

Turning to `COc1ccc(C2CC(c3cc(OC)c(OC)c(OC)c3)=NN2)cc1` (stereo not given), the GI50 in the experiment on MOLT-4 leukemia was 4.76 µM; in the experiment with HS 578T breast it was 14.4 µM; in the experiment on LOX IMVI melanoma it was 5.52 µM; with EKVX NSCLC, 9.26 µM; with UACC-62 melanoma, 7.63 µM; with ACHN renal, 26.2 µM. Also, the GI50 with KM12 colon is 4.49 µM; in the experiment with OVCAR-4 ovarian, 12.8 µM; in the experiment with U251 CNS, 4.52 µM. Also, the TGI in the experiment with MOLT-4 leukemia is 25 µM; in the experiment on HS 578T breast it was 98.3 µM; in the experiment with LOX IMVI melanoma, greater than 100 µM; in the experiment on EKVX NSCLC it was greater than 100 µM; in the experiment with UACC-62 melanoma, greater than 100 µM; in the experiment with ACHN renal, greater than 100 µM. In addition, the TGI with KM12 colon, in the experiment on OVCAR-4 ovarian and in the experiment on U251 CNS was greater than 100 µM each time.
